Each structure is given as a SMILES string.

This is an account of results in patent US8093221B2, “Cosmetic and pharmaceutical compositions comprising lauroyl proline and an ester of anhydrohexitol and of an aliphatic carboxylic acid” (Societe d'Exploitation de Produits pour les Industries …, priority 2005, dated 2012).

The data set in a line: Tests for dissolving the composition in liquid media (water, liquid paraffin, propylene glycol). The format is physicochemical. Particulars: 0.75% by mass of N-lauroyl proline (Composition 3 at 3% by mass). As for the experimental part:
Composition 3 prepared in the above paragraph is dissolved in water, in liquid paraffin and in propylene glycol, at a proportion of 3% by mass, which corresponds to 0.75% by mass of N-lauroyl proline.

With `CCCCCCCCCCCC(=O)N1CCC[C@H]1C(=O)O` [Pure N-lauroyl proline, N-lauroyl proline], the “Temperature at which dispersible in liquid paraffin” value (liquid paraffin) is “dispersible at 70 °C”. In addition, for the setting “propylene glycol”, the “Temperature at which dispersible in propylene glycol” value was “dispersible at 60 °C”. The “Temperature at which dispersible in water” value (water) is “dispersible at 80 °C”.
